The values that follow come from US11578072B2, “Spiro-lactam NMDA receptor modulators and uses thereof” (Aptinyx Inc., priority 2018, dated 2023).

Series [1] has as its target T1, NMDAR2B (Homo sapiens, UniProt Q13224).
T1 construct: expressed in transfected cells; host or cells: HEK cells (membrane extract)
Briefly: NMDAR agonist assay, [3H]MK-801 binding, NMDAR2B expressing HEK cell membranes. It counts as biochemical. The note with it: 50 μM glutamate; for EC50: read-out: NMDAR2B B: log EC50 (converted). On the procedure:
(§1) Assays were conducted as described by Moskal et al., “GLYX-13: a monoclonal antibody-derived peptide that acts as an N-methyl-D-aspartate receptor modulator,” Neuropharmacology, 49, 1077-87, 2005. These studies were designed to determine if the test compounds act to facilitate NMDAR activation in NMDAR2A, NMDAR2B, NMDAR2C or NMDAR2D expressing HEK cell membranes as measured by increases in [3H]MK-801 binding.
(§2) In the assay, 300 μg of NMDAR expressing HEK cell membrane extract protein was preincubated for 15 minutes at 25° C. in the presence of saturating concentrations of glutamate (50 μM) and varying concentrations of test compound (1×10^−15M-1×10^−7M), or 1 mM glycine. Following the addition of 0.3 μCi of [3H]MK-801 (22.5 Ci/mmol), reactions were again incubated for 15 minutes at 25° C. (nonequilibrium conditions). Bound and free [3H]MK-801 were separated via rapid filtration using a Brandel apparatus.
(§3) In analyzing the data, the DPM (disintegrations per minute) of [3H]MK-801 remaining on the filter were measured for each concentration of test compound or for 1 mM glycine. The DPM values for each concentration of a ligand (N=2) were averaged. The baseline value was determined from the best fit curve of the DPM values modeled using the GraphPad program and the log(agonist) vs. response(three parameters) algorithm was then subtracted from all points in the dataset. The % maximal [3H]MK-801 binding was then calculated relative to that of 1 mM glycine: all baseline subtracted DPM values were divided by the average value for 1 mM glycine. The EC50 and % maximal activity were then obtained from the best fit curve of the % maximal [3H]MK-801 binding data modelled using the GraphPad program and the log(agonist) vs. response(three parameters) algorithm.
(§4) The tables below summarize the results for the wild type NMDAR agonists NMDAR2A, NMDAR2B, NMDAR2C, and NMDAR2D, and whether the compound is not an agonist (−), is an agonist (+), or is a strong agonist (++), where column A is based on the % maximal [3H]MK-801 binding relative to 1 mM glycine (−=0; <100%=+; and >100%=++); and column B is based on log EC50 values (0=−; >1×10^−9 M (e.g., −8)=+; and <1×10^−9 M (e.g., −10)++).

In series [2] the target is T2, NMDAR2D (Homo sapiens, UniProt O15399+Q05586).
T2 construct: expressed in transfected cells; host or cells: HEK cells (membrane extract)
Briefly: NMDAR agonist assay, [3H]MK-801 binding, NMDAR2D expressing HEK cell membranes. It is filed as biochemical. The note with it: 50 μM glutamate, read-out: NMDAR2D B: log EC50 (converted). Here is the method:
as §1, §2, §3, §4

For series [3], the target named is T3, NMDAR2D (Homo sapiens, UniProt O15399).
T3 construct: expressed in transfected cells; host or cells: HEK cells (membrane extract)
The series is described as above. The settings on record: 50 μM glutamate. It is filed as biochemical. Here is the method:
as §1, §2, §3, §4

For series [4], the target named is T4, NMDAR2A (Homo sapiens, UniProt Q12879).
T4 construct: expressed in transfected cells; host or cells: HEK cells (membrane extract)
Briefly: NMDAR agonist assay, [3H]MK-801 binding, NMDAR2A expressing HEK cell membranes. It is filed as biochemical. The arrangement: key to NMDAR2A B: log EC50: 0=−; >1×10^−9 M (e.g., −8)=+; <1×10^−9 M (e.g., −10)++. The note with it: 50 μM glutamate; for EC50: read-out: NMDAR2A B: log EC50 (converted). On the procedure: as §1, §2, §3, §4

Series [5] in a line: Microsomal stability (Human). It counts as in vitro ADME. The note with it: human microsomes, after 60 minutes. Here is the method:
(§5) Microsomal stability of disclosed compounds was investigated. The following table indicates the percent of compound remaining after 60 minutes.

Series [6] can be described thus: Microsomal stability (Rat). It counts as in vitro ADME. The settings on record: rat microsomes, after 60 minutes. On the procedure:
as §5

A short description of series [7]: Plasma stability (Human). The settings on record: after 60 minutes. It is filed as in vitro ADME. Here is the method: (§6) Plasma stability of disclosed compounds was investigated. The following table indicates the percent of compound remaining after 60 minutes.
Series [8] is described as follows: Oral pharmacokinetics in rats (plasma, brain, CSF). It counts as in vivo, Sprague Dawley rats. The settings on record: rat, oral gavage, 10 mg/kg; for bioavailability / AUC(0-t) / Cmax / Tmax: Sprague Dawley, plasma. Here is the method:
In another experiment, Sprague Dawley rats were dosed per os (oral gavage) using a normal saline formulation containing 10 mg/kg of the compounds identified in the table below. Plasma, brain, and CSF samples were analyzed at various time points over a 24 hour period. The table below summarizes the results of the oral pharmacokinetics, where the first three values (Tmax, Cmax and AUClast) are plasma values.

Series [9] can be described thus: Plasma stability (Rat). It is filed as in vitro ADME. The settings on record: after 60 minutes. On the procedure:
as §6

Series [10] in a line: IV pharmacokinetics in rats. The settings on record: Sprague Dawley, in vivo, rat, 2 mg/kg, normal saline; for Vd: read-out: Vss. Here is the method:
Sprague Dawley rats were dosed intravenously using a normal saline formulation containing 2 mg/kg of the compounds identified in the below table. The table below summarizes the results of the IV pharmacokinetics.

Series [11] relates to Sprague Dawley rats. Briefly: Bennett nerve injury assay (mechanical analgesia, paw withdrawal threshold). The note with it: 150 mg/kg PO. It is filed as in vivo. On the procedure:
The Bennett model of mechanical analgesia is used to assess the analgesic effects of compounds as measured by paw withdrawal threshold. Bennett G J, Xie Y K, “A peripheral mononeuropathy in rat that produces disorders of pain sensation like those seen in man,” Pain 33:87-107, 1988. […] Vehicle animals receive the surgery and then receive vehicle rather than test compound. Animals were tested 1 hr, 24 h and 1 wk post-test compound or vehicle administration.
Male 2-3 month old Sprague Dawley rats were used. Harlan was the supplier for all studies. Rats were housed in Lucite cages with aspen wood chip bedding, maintained on a 12:12 light:dark cycle (lights on at 5 AM), and given ad libitum access to Purina lab chow (USA) and tap water throughout the study.
Rats were anesthetized using inhaled isoflurane (2.5%). Sciatic nerve chronic constriction nerve injury surgery was performed as previously described (Bennett and Xie, 1988). An incision (˜1.5 cm in length) was made with a scalpel blade dorsally through skin on the right hind limb, parallel and posterior to femur. Using a small pointed hemostat, the biceps femoris and gluteus superficialis muscles were separated. Using curved blunt forceps, the common sciatic nerve was isolated and exposed. For the mechanical analgesia studies, the whole sciatic nerve was ligated. Using hemostats/forceps and chromic gut (5-0), the nerve was loosely ligated with a square knot; 3 ligatures, 1 mm apart were placed on the nerve. […] Testing occurred approximately 2 weeks post-surgery.
During testing, rats were acclimated to the surface of a suspended wire mesh grid (1 cm×1 cm, with the wire being 0.3 cm in diameter) for 15-20 min. Starting from the smallest, each Von Frey filament was pressed perpendicularly to the plantar surface of the affected (ipsilateral) hind paw until slightly bent and then held for 6 second. If an obvious hind paw withdrawal or a flinching behavior immediately after the withdrawal of the filament was not observed, the next larger filament was used in the same manner. In case of a response, a lower filament was used. This was repeated until six responses were collected.
For all studies, animals were baselined prior to study start to test for allodynia (defined as a paw withdrawal threshold under 5). A subset of animals was tested with gabapentin (150 mg/kg, PO) to ensure at least 50% analgesia. Once it was confirmed animals were ready for study initiation, animals were balanced across groups. All study investigators were blind to treatment conditions. Animals were dosed with 0.1, 1 or 10 mg/kg of test compound via oral gavage (PO), control sets of animals were dosed with gabapentin (150 mg/kg, PO) or vehicle (0.5% Na-CMC in 0.9% sterile saline, PO). Testing occurred 1 h post-dosing with animals retested 24 hrs and 1 week post-dosing. The percent analgesia calculations for each animal were made using the following equation: % analgesia=[(log(x)−y)/((log (z)−y)]*100, where x=the paw withdrawal threshold for the drug-treated animal in grams, y=the average of the log(x) values for the vehicle treated group, and z=the paw withdrawal threshold for naïve animals in grams (historical value of 15 used). The results for Compound AD, where the percentage of analgesia is measured at 1 hour, 24 hours, and 1 week after compound administration are as follows: for 0.1 mg/kg dose: 38.7% at 1 h, 34.5% at 24 h, and 19.7% at 1 wk; for 1 mg/kg dose: 24.1% at 1 h, 26.5% at 24 h, and 13.2% at 1 wk; and for 10 mg/kg dose: 61.2% at 1 h, 45.1% at 24 h, and 39.5% at 1 wk.

T1 sequence (Q13224 27-1484, species assumed, other chains not shown): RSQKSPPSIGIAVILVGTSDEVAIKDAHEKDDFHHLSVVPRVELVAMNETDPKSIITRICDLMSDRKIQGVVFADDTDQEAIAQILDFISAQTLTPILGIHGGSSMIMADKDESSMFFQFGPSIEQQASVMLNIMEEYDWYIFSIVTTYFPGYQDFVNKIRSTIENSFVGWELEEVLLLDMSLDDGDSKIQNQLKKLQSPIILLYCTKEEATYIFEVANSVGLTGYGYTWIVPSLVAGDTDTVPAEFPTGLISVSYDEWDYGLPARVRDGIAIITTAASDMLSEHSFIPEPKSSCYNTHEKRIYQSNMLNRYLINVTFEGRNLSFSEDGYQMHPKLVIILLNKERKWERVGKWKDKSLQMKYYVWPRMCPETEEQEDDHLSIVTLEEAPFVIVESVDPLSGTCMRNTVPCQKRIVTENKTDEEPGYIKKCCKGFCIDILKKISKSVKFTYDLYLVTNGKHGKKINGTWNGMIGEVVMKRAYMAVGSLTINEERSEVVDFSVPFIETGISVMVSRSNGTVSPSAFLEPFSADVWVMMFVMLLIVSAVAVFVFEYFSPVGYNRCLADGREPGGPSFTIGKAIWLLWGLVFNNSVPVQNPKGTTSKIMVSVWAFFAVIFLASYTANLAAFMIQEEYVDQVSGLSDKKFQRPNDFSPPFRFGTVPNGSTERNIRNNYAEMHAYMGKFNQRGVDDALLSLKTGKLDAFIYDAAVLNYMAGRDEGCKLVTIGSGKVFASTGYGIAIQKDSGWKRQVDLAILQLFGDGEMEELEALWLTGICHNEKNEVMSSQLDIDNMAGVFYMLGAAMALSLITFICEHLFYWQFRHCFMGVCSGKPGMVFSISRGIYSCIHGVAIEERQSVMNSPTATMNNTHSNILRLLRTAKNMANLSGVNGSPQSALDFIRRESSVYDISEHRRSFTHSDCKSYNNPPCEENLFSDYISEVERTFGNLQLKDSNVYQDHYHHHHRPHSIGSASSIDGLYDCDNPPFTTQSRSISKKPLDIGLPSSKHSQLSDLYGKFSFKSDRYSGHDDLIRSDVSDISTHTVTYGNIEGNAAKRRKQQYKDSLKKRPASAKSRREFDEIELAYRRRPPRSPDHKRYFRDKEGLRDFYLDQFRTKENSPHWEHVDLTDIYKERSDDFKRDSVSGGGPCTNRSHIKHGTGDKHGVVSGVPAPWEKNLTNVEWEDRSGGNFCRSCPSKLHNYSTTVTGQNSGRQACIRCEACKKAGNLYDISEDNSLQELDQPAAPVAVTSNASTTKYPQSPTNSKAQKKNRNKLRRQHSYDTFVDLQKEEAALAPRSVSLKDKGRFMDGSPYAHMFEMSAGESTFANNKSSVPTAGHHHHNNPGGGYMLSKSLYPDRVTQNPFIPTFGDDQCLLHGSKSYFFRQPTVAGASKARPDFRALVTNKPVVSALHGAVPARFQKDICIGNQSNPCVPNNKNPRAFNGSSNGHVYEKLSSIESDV
T4 sequence (Q12879 23-1464, species assumed, other chains not shown): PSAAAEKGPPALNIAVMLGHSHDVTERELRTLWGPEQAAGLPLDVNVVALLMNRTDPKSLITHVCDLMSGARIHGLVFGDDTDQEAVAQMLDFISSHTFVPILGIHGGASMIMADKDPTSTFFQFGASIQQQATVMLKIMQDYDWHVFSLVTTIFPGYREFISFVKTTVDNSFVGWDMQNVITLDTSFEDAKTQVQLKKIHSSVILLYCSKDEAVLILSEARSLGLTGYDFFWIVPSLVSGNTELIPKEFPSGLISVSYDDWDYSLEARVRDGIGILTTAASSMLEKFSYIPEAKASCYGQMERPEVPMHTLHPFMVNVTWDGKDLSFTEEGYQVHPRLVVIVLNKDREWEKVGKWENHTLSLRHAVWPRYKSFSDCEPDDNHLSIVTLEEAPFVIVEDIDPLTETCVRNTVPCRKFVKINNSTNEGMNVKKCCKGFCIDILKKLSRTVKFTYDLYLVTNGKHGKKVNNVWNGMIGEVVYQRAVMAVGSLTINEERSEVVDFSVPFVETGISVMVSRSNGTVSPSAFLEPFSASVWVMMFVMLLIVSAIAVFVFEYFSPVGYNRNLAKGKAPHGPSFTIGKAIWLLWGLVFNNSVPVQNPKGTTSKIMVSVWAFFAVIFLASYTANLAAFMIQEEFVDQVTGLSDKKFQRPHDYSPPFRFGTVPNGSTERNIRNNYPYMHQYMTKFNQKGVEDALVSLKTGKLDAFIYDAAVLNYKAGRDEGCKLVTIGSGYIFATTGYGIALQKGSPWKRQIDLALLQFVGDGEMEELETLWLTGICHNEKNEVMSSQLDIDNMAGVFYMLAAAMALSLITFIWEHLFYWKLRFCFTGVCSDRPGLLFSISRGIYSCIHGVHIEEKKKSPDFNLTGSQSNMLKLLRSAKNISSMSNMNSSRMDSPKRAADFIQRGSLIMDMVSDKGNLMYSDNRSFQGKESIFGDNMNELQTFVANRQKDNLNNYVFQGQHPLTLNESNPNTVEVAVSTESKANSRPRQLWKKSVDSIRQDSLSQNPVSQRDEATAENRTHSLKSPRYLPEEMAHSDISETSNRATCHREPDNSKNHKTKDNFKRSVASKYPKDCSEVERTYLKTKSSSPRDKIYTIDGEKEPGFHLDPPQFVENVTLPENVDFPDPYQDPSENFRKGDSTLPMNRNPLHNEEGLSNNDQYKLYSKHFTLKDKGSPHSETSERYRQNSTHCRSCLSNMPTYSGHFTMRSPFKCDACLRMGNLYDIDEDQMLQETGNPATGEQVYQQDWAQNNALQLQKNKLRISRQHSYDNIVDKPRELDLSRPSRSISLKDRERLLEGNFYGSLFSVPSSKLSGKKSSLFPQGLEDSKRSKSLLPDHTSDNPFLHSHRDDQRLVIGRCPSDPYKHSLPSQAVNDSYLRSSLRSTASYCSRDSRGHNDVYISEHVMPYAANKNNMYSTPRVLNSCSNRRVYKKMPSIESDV
T2 sequence (O15399 28-1336, species assumed, other chains not shown): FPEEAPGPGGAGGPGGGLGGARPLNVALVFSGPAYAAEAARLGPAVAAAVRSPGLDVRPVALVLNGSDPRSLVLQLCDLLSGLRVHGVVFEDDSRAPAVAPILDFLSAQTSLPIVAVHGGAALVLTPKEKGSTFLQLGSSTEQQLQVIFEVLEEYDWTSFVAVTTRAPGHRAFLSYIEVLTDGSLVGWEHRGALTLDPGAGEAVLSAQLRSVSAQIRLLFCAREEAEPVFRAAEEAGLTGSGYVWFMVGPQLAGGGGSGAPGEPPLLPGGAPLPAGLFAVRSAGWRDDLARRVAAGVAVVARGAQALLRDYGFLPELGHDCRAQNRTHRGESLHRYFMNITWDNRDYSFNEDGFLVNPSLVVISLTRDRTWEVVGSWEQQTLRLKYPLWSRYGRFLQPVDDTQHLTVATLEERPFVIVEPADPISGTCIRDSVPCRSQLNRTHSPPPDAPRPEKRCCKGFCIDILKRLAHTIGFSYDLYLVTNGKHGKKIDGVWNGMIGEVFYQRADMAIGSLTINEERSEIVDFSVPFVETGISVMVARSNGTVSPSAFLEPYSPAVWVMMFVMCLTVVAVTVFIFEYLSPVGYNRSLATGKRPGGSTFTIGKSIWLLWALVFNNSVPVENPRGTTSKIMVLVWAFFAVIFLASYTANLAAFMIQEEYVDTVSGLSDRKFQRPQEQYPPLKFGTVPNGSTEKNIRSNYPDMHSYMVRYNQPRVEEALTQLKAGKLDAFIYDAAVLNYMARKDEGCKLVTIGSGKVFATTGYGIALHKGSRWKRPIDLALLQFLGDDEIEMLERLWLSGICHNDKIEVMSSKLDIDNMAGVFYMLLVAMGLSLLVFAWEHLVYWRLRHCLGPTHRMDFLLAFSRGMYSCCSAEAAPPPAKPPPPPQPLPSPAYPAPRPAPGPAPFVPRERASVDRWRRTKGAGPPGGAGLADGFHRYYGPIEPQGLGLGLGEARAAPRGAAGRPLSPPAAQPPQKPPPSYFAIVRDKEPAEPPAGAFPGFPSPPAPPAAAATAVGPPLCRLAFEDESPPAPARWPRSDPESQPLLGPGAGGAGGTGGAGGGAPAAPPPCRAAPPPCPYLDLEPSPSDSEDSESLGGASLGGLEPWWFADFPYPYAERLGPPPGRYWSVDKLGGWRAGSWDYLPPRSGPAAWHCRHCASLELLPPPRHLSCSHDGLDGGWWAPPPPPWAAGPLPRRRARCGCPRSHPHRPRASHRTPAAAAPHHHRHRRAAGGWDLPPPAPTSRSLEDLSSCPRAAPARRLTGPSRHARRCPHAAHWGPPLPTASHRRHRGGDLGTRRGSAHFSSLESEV
T3 sequence (O15399 28-1336, species assumed, other chains not shown): as above

The term EC50 denotes the concentration at which the effect is half-maximal. One may read the bioavailability as the share of a dose that reaches the circulation, judged against a reference dose that is usually intravenous. Usually AUC(0-t) stands for the area under the concentration-time curve up to a stated or last time point. Broadly, the Cmax is the maximum level reached in the sampled fluid or tissue. By Tmax is commonly meant the time at which the peak concentration occurs. What is called clearance is a measure of how efficiently the substance is removed, as volume per time. As a reminder, the half-life is the time in which the quantity being followed falls by half. For `O=C(O)C(F)(F)F.O=C1NCCCC12CCNCC2` [AA, 2,9-diazaspiro[5.5]undecan-1-one], in series [1], the “NMDAR2B A: % maximal [3H]MK-801 binding relative to 1 mM glycine” value is recorded as “+ (<100%=+)” and the half-maximal effective concentration (EC50) is below 1 nM. Further, the EC50 in [2] was below 1 nM. Moreover, in series [3], the “NMDAR2D A: % maximal [3H]MK-801 binding relative to 1 mM glycine” value is on record as “++ (>100%=++)”. In addition, in series [4], the “NMDAR2A A: % maximal [3H]MK-801 binding relative to 1 mM glycine” value was “− (−=0)” and the “NMDAR2A B: log EC50” value is given as “−”. In addition, the “Microsomal (Human): percent of compound remaining” value in series [5] amounted to 96%. Also, the “Microsomal (Rat): percent of compound remaining” value in series [6] turned out to be 91%. Besides, in [7], the “Plasma (Human): percent of compound remaining” value was found to be 97%. For the same compound, in series [8], the bioavailability was determined as 18%, the area under the curve AUC(0-t) is 1020 ng·h/mL, the concentration peaked (Cmax) at 325 ng/mL and the Tmax is 2.11 h. Further, in [8], the “CSF Cmax” value amounted to 12 ng/mL and the “Brain Cmax” value turned out to be 0 ng/mL. Besides, the “Plasma (Rat): percent of compound remaining” value in [9] was determined as 84%. Moreover, in series [10], the AUC(0-t) worked out at 1160 ng·h/mL, the peak concentration (Cmax) amounted to 2660 ng/mL, the clearance is 28.4 mL/min/kg and the half-life is 2 h. For the same compound, the Vd in series [10] is 1.76 L/kg.

Consider `CC(C)(C)OC(=O)N1CCC2(CCCNC2=O)CC1` [AC, tert-butyl 1-oxo-2,9-diazaspiro[5.5]undecane-9-carboxylate], for which, in series [1], the “NMDAR2B A: % maximal [3H]MK-801 binding relative to 1 mM glycine” value was “+ (<100%=+)” and the EC50 was below 1 nM. Also, in [4], the “NMDAR2A A: % maximal [3H]MK-801 binding relative to 1 mM glycine” value is “+ (<100%=+)” and the EC50 was above 1 nM. In addition, the “Microsomal (Human): percent of compound remaining” value in series [5] is 100%. Further, the “Microsomal (Rat): percent of compound remaining” value in series [6] came to 96%. In addition, the “Plasma (Human): percent of compound remaining” value in [7] turned out to be 100%. Further, in series [8], the bioavailability amounted to 44%, the exposure AUC(0-t) came out at 1860 ng·h/mL, the Cmax was determined as 3630 ng/mL and the Tmax was determined as 0.25 h. Besides, in [8], the “CSF Cmax” value is 261 ng/mL and the “Brain Cmax” value came out at 298 ng/mL. In addition, the “Plasma (Rat): percent of compound remaining” value in series [9] worked out at 100%. Further, in series [10], the area under the curve AUC(0-t) was determined as 845 ng·h/mL, the Cmax turned out to be 5660 ng/mL, the clearance was determined as 39.5 mL/min/kg and the half-life is 0.12 h. Moreover, the Vd in series [10] is 0.31 L/kg.

Regarding `O=C1NCCCCC12CCNCC2` [AG, 3,8-diazaspiro[5.6]dodecan-7-one], in series [1], the “NMDAR2B A: % maximal [3H]MK-801 binding relative to 1 mM glycine” value is “+ (<100%=+)” and the EC50 is below 1 nM. Moreover, in series [4], the “NMDAR2A A: % maximal [3H]MK-801 binding relative to 1 mM glycine” value was “+ (<100%=+)” and the half-maximal effective concentration (EC50) is below 1 nM.

Regarding `NCC1(CC(=O)O)CCCCC1` [gabapentin, reference compound], the “% analgesia” value is on record as “under 5%” in [11] (1 week post-administration, control group of the study); 0% in [11] (1 wk, example (typical) control values); 77% in series [11] (1 h, example (typical) control values); “at least 50%” in series [11] (1 h post-administration, control group of the study); 17% in series [11] (24 h, example (typical) control values); “under 5%” in [11] (24 h post-administration, control group of the study).
